Results reported in PMC7413516, “Antidepressant-like activity and safety profile evaluation of 1H-imidazo[2,1-f]purine-2,4(3H,8H)-dione derivatives as 5-HT1A receptor partial agonists” (PLoS ONE, 2020).
Several values for one entry are separate records, joined by “and”; a condition that tells them apart may be missing. Equal values may be shown once. Entries after “also recorded” stand apart in the source; their conditions may differ.

Tests used:
Type in all cases: in vivo, Swiss albino mice
[1] = Plasma ALAT and γ-GTP activity after repeated administration; conditions: mice, AZ-853 0.625, AZ-861 1.25 mg/kg b.w./day
Method: (§1) The Swiss albino mice were used in the experiment. AZ-853 and AZ-861 were injected once daily for 16 consecutive days. On the 1st and 15th day the administration of the compounds, 18-h spontaneous animal activity was registered (see below). FST, as described earlier, was performed on the 14th day just before the next treatment. To ensure that the effects observed in FST are not the result of increased motility of animals, on the 13th day, just before the next administration, the locomotor activity was measured as described earlier, from 2 to 6 min after test start, i.e. in the period identical to the duration of FST. Blood and organ collection was performed on the 17th day at 24 h after the last dose and fasting.
Blood samples were collected from the Swiss albino mice 24 h after the last administration of the tested compounds or vehicle. To determine glucose, cholesterol and triglyceride levels in the plasma, standard enzymatic spectrophotometric tests (Biomaxima S.A. Lublin, Poland) were used. In the presence of appropriate enzyme, the substrate was converted to a colored compound. Absorbance was measured at a wavelength of 500 nm. To determine alanine aminotransferase (ALAT) or γ-glutamyl transpeptidase (γ-GTP) activities in the plasma, the standard enzymatic spectrophotometric test (Biomaxima S.A.) was used. Absorbance was measured at 340 nm (ALAT) or 405 nm (γ-GTP).

[2] = system: mice; test: Locomotor activity (Opto M3 activity monitor) in mice; conditions: for Number of movements (individual animals): raw data
Excerpt: The investigated compounds AZ-853 (8-(4-(4-(2-fluorophenyl)piperazin-1-yl)butyl)-1,3-dimethyl-1H-imidazo[2,1-f]purine-2,4(3H,8H)-dione and AZ-861 (1,3-dimethyl-8-(4-(4-(3-(trifluoromethyl)phenyl)piperazin-1-yl)butyl)-1H-imidazo[2,1-f]purine-2,4(3H,8H)-dione) were synthesised in the Department of Medicinal Chemistry, Faculty of Pharmacy, Jagiellonian University, and their synthesis was described earlier. AZ-853 and AZ-861 were suspended in 1% aqueous solution of Tween 80, and WAY-100635 (Sigma, Germany) was dissolved in 0.9% saline. In acute experiments, the selected compounds AZ-853 (0.156–2.5 mg/kg) and AZ-861 (0.625–2.5 mg/kg) were injected i.p. once 60 min before tests, whereas WAY-100635 (0.3 mg/kg) was administered subcutaneously (s.c.) 45 min before the test. […] In chronic experiments, AZ-853 and AZ-861 were administered i.p. once a day (between 9:00 AM and 10:00 AM) for 16 consecutive days at the minimum active doses selected from FST experiment, i.e. 0.625 and 1.25 mg/kg, respectively. […]. The control groups received 1% aqueous solution of Tween 80.
Locomotor activity was recorded with an Opto M3 multi-channel activity monitor (MultiDevice Software v.1.3, Columbus Instruments). The Swiss albino mice were individually placed in plastic cages (220 × 120 × 130 mm) for 30 min habituation period, and then the crossings of each channel (ambulation) were counted from […] to 6 min, that is the time equal to the observation period in FST. The cages were cleaned up with 70% ethanol after each mouse.
as §1, with “[…].” for “On the 1st and 15th day the administration of the compounds, 18-h spontaneous animal activity was registered (see below).”

[3] = system: mice; test: Spontaneous activity monitoring (RFID TraffiCage, 18 h); conditions: for Mean counts, spontaneous activity: 0.625 mg/kg
Method: as §1
The spontaneous activity of the mice was measured on the 1st and 15th day of the treatment with a special, innovative radiofrequency identification system (RFID-system)—TraffiCage (TSE-Systems, Germany). The test was conducted according to the method described in the literature. The animals had the transmitter (RFID) subcutaneously implanted, which tracked the time they spent in different areas of the cage. The data obtained were then grouped in a special computer program.

[4] = 18-h monitoring, AZ-853 0.625, AZ-861 1.25 mg/kg b.w./day

Cn1c(=O)c2c(nc3n(CCCCN4CCN(c5ccccc5F)CC4)ccn23)n(C)c1=O [AZ-853, 8-(4-(4-(2-fluorophenyl)piperazin-1-yl)butyl)-1,3-dimethyl-1H-imidazo[2,1-f]purine-2,4(3H,8H)-dione]
increase of plasma γ-GTP activity [1]: approximately 435%
plasma ALAT activity vs. control [1]: did not lead to significant changes in ALAT activity
effect on spontaneous locomotor activity, acute administration ([2]; 4 min period identical to FST, AZ-853 0.625, 1.25, 2.5 mg/kg, AZ-861 1.25 mg/kg, WAY-100635 0.3 mg/kg alone or combined): did not change the behavior of the animals
Number of movements (mean) ([2]; acute, 0.625 mg/kg i.p., measured from 3 to 6 min): 127.8
Number of movements (individual animals) ([2]; acute, 0.625 mg/kg, 3 to 6 min): 130 and 222 and 166 and 48 and 117 and 84
Number of movements (mean) ([2]; acute, 1.25 mg/kg i.p., measured from 3 to 6 min): 149.8
Number of movements (individual animals) ([2]; acute, 1.25 mg/kg, 3 to 6 min): 200 and 171 and 90 and 115 and 119 and 204
Number of movements (mean) ([2]; acute, 2.5 mg/kg i.p., measured from 3 to 6 min): 156.8
Number of movements (individual animals) ([2]; acute, 2.5 mg/kg, 3 to 6 min): 116 and 258 and 120 and 200 and 205 and 42
Number of movements (mean) ([2]; repeated, 0.625 mg/kg, 24 h after 12th administration, during 4 min): 519.5
Number of movements (individual animals) ([2]; repeated, 0.625 mg/kg): 820 and 399 and 687 and 223 and 606 and 272 and 558 and 551 and 418 and 661
spontaneous activity after the 1st administration vs. control [3, 4]: increased spontaneous activity in the 1st, 7th, 12th and 13th hour
spontaneous activity after the 15th administration vs. control [3, 4]: significant increase in activity was observed only in the 1st hour; also recorded: in the 4th, 7th and 9th hour after administration, a significant reduction in spontaneous activity
Mean counts, spontaneous activity ([3]; after 1st administration, 1 h after administration): 422.3 counts
Mean counts, spontaneous activity ([3]; after 1st administration, 2 h after administration): 229.6 counts
Mean counts, spontaneous activity ([3]; after 1st administration, 3 h after administration): 213.6 counts
Mean counts, spontaneous activity ([3]; after 1st administration, 4 h after administration): 200.4 counts
Mean counts, spontaneous activity ([3]; after 1st administration, 5 h after administration): 179.9 counts
Mean counts, spontaneous activity ([3]; after 1st administration, 6 h after administration): 236.7 counts
Mean counts, spontaneous activity ([3]; after 1st administration, 7 h after administration): 254.4 counts
Mean counts, spontaneous activity ([3]; after 1st administration, 8 h after administration): 265.9 counts
Mean counts, spontaneous activity ([3]; after 1st administration, 9 h after administration): 189.1 counts
Mean counts, spontaneous activity ([3]; after 1st administration, 10 h after administration): 250.4 counts
Mean counts, spontaneous activity ([3]; after 1st administration, 11 h after administration): 226.9 counts
Mean counts, spontaneous activity ([3]; after 1st administration, 12 h after administration): 397.9 counts
Mean counts, spontaneous activity ([3]; after 1st administration, 13 h after administration): 346.3 counts
Mean counts, spontaneous activity ([3]; after 1st administration, 14 h after administration): 365.0 counts
Mean counts, spontaneous activity ([3]; after 1st administration, 15 h after administration): 380.1 counts
Mean counts, spontaneous activity ([3]; after 1st administration, 16 h after administration): 407.7 counts
Mean counts, spontaneous activity ([3]; after 1st administration, 17 h after administration): 351.3 counts
Mean counts, spontaneous activity ([3]; after 1st administration, 18 h after administration): 351.3 counts
Mean counts, spontaneous activity ([3]; after 15th administration, 1 h after administration): 324.3 counts
Mean counts, spontaneous activity ([3]; after 15th administration, 2 h after administration): 152.7 counts
Mean counts, spontaneous activity ([3]; after 15th administration, 3 h after administration): 148.6 counts
Mean counts, spontaneous activity ([3]; after 15th administration, 4 h after administration): 120.0 counts
Mean counts, spontaneous activity ([3]; after 15th administration, 5 h after administration): 166.6 counts
Mean counts, spontaneous activity ([3]; after 15th administration, 6 h after administration): 110.9 counts
Mean counts, spontaneous activity ([3]; after 15th administration, 7 h after administration): 134.7 counts
Mean counts, spontaneous activity ([3]; after 15th administration, 8 h after administration): 144.6 counts
Mean counts, spontaneous activity ([3]; after 15th administration, 9 h after administration): 138.1 counts
Mean counts, spontaneous activity ([3]; after 15th administration, 10 h after administration): 272.4 counts
Mean counts, spontaneous activity ([3]; after 15th administration, 11 h after administration): 256.9 counts
Mean counts, spontaneous activity ([3]; after 15th administration, 12 h after administration): 347.2 counts
Mean counts, spontaneous activity ([3]; after 15th administration, 13 h after administration): 396.8 counts
Mean counts, spontaneous activity ([3]; after 15th administration, 14 h after administration): 307.7 counts
Mean counts, spontaneous activity ([3]; after 15th administration, 15 h after administration): 281.8 counts
Mean counts, spontaneous activity ([3]; after 15th administration, 16 h after administration): 249.2 counts
Mean counts, spontaneous activity ([3]; after 15th administration, 17 h after administration): 304.0 counts
Mean counts, spontaneous activity ([3]; after 15th administration, 18 h after administration): 356.3 counts
